From BindingDB's records for patent US12552793 (Kangbaida (Sichuan) Biotechnology Co., 2026)

biological target: DNA-dependent protein kinase catalytic subunit (Homo sapiens, UniProt P78527); test: Inhibition of DNA-PK Kinase
Description: IC50 was calculated using GraphPad Prism 8.

Chain of DNA-dependent protein kinase catalytic subunit (P78527 whole entry): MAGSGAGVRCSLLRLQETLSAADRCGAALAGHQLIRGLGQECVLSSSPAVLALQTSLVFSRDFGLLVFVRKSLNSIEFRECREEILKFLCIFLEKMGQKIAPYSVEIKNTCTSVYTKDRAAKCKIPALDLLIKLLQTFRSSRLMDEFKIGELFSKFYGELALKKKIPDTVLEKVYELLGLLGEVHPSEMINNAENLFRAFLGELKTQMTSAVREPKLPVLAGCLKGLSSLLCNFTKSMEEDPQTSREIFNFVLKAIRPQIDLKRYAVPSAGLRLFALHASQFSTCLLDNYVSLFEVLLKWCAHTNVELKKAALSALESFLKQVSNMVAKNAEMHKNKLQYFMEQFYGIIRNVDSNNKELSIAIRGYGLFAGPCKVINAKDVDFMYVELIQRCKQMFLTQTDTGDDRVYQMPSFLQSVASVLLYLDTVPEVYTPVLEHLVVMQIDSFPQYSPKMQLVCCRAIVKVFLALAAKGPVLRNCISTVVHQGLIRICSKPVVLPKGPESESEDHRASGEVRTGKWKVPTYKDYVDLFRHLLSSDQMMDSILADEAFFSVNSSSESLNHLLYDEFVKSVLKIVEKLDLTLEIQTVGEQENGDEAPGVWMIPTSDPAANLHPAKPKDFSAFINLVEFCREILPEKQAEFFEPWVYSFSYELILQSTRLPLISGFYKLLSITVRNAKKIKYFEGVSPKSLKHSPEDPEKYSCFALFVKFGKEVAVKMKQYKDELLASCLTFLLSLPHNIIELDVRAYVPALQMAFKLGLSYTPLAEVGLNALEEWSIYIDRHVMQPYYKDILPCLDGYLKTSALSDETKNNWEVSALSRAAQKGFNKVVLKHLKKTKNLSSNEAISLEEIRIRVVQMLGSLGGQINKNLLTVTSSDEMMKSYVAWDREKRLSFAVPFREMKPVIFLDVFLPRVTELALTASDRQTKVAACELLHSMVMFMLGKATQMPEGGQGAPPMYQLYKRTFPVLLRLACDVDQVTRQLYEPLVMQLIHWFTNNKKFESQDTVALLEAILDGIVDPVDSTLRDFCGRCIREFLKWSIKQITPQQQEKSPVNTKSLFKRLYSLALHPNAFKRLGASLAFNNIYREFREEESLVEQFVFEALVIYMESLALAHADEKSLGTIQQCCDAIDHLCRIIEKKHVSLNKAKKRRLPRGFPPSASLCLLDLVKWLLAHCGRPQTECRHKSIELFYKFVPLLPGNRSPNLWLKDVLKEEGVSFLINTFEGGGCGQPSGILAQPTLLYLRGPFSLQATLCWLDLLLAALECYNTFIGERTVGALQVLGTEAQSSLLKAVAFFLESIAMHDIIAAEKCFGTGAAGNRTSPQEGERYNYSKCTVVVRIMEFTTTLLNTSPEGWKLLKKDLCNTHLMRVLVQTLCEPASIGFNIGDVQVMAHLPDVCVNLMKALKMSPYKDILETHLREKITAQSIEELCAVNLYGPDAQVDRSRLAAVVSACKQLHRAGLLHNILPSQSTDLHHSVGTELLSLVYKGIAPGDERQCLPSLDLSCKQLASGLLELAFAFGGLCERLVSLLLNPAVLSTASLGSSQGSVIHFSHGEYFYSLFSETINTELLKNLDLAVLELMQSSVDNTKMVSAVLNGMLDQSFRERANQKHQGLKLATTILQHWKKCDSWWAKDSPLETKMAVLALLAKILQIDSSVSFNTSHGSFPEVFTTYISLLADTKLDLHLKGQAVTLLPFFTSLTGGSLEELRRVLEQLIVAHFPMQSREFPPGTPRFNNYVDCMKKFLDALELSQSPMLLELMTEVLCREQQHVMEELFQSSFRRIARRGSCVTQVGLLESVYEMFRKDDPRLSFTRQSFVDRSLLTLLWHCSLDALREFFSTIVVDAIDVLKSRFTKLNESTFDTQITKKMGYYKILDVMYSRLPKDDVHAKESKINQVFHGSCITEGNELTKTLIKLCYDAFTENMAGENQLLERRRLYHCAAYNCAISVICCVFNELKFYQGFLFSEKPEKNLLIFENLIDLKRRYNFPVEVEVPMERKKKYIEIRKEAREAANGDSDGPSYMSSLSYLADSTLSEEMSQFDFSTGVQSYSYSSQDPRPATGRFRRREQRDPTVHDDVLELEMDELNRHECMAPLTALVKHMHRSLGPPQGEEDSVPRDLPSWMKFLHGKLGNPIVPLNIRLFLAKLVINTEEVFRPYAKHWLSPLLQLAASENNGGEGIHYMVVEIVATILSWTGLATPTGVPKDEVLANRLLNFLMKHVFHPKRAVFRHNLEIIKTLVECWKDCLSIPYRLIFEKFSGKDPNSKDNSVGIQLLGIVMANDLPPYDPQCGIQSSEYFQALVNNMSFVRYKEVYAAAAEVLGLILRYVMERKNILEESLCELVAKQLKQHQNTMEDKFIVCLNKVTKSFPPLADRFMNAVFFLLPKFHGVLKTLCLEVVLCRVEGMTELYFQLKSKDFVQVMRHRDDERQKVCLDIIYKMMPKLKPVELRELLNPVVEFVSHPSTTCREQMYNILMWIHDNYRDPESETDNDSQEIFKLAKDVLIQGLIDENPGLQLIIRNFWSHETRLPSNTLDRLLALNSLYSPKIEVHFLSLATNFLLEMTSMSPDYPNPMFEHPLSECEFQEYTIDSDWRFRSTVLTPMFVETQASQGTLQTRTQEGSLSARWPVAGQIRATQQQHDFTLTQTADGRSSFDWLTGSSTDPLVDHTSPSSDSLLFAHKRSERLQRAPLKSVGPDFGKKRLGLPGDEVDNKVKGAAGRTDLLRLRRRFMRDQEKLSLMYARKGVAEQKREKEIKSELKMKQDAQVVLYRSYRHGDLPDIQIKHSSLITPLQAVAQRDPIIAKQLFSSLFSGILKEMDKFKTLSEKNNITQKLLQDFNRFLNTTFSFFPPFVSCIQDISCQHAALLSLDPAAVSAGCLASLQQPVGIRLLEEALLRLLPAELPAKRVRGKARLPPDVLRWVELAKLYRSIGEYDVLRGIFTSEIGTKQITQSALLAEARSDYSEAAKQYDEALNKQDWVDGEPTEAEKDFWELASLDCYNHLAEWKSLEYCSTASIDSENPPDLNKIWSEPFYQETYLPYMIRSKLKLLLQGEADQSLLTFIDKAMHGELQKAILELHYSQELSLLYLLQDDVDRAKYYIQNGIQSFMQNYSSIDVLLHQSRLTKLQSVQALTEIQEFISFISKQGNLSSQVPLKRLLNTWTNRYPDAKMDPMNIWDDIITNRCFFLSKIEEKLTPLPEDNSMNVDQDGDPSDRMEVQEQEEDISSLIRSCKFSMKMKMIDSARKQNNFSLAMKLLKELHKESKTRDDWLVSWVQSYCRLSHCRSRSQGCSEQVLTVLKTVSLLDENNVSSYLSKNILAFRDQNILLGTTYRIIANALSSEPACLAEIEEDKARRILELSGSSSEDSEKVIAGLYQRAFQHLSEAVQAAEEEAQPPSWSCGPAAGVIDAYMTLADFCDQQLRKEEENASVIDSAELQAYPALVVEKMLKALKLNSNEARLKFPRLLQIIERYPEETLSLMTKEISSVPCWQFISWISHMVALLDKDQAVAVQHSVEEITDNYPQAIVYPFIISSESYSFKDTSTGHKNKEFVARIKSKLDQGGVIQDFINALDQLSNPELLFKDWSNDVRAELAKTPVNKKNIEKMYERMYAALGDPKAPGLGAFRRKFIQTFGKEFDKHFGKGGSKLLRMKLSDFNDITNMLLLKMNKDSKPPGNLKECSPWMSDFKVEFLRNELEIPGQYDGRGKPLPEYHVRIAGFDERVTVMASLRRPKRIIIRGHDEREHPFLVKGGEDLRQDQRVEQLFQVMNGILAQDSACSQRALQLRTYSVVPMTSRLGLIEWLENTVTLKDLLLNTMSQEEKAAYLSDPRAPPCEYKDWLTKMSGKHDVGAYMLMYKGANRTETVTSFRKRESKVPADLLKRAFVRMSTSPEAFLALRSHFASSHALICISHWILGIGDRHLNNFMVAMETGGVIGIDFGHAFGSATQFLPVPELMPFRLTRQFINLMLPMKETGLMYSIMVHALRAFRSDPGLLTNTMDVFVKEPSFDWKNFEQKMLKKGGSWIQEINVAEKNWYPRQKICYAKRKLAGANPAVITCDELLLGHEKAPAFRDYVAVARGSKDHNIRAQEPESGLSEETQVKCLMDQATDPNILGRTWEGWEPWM

SMILES	IC50 [nM]
Cc1cc2ncnn2cc1Nc1ncc2c(n1)n(C1C3CC4CC1CC(O)(C4)C3)c(=O)n2C (centres undefined) [US12552793, Compound 16-2]	2.49
Cc1cc(C(N)=O)c(F)cc1Nc1ncc2c(n1)n(C13CC4CC(C1)C(O)C(C4)C3)c(=O)n2C (centres undefined) [US12552793, Compound 17-2]	2.2
[2H]C1(O)C2CC3CC1CC(n1c(=O)n(C)c4cnc(Nc5cn6ncnc6cc5C)nc41)(C3)C2 (centres undefined) [US12552793, Compound 20-2]	1.1
[2H]C1(O)C2CC3CC1CC(n1c(=O)n(C)c4cnc(Nc5cc(F)c(C(N)=O)cc5C)nc41)(C3)C2 (centres undefined) [US12552793, Compound 23-1]	2.84
[2H]C1(O)C2CC3CC1CC(n1c(=O)n(C)c4cnc(Nc5cc(F)c(C(N)=O)cc5C)nc41)(C3)C2 (centres undefined) [US12552793, Compound 23-2]	0.85

These reach a lower IC50. Values come first.

IC50 [nM]	SMILES
0.52	Cc1cc2ncnn2cc1Nc1ncc2c(n1)n(C1C3CC4CC1CC(O)(C4)C3)c(=O)n2C (centres undefined) [US12552793, Compound 16-1]
0.01	Cc1cc(C(N)=O)c(F)cc1Nc1ncc2c(n1)n(C13CC4CC(C1)C(O)C(C4)C3)c(=O)n2C (centres undefined) [US12552793, Compound 17-1]
0.03	[2H]C1(O)C2CC3CC1CC(n1c(=O)n(C)c4cnc(Nc5cn6ncnc6cc5C)nc41)(C3)C2 (centres undefined) [US12552793, Compound 20-1]
0.01	COC1(OC)C2CC3CC1CC(n1c(=O)n(C)c4cnc(Nc5cc(F)c(C(N)=O)cc5C)nc41)(C3)C2 [US12552793, Compound 26]
